Data from article PMC8129133, “Polymer-free corticosteroid dimer implants for controlled and sustained drug delivery” (Nature Communications, 2021).
“And” between values parts separate entries of the source, which are not always exact repeats. Identical values can stand only once.

What was measured:
[1] = rabbit, in vivo
Method: Analysis of samples was conducted using a SCIEX API 5000 mass spectrometer (Applied Biosystems/MDS Sciex), Shimadzu LC-20ADXR HPLC pumps, Shimadzu SCL-10A controller, and HTS-PAL autoinjector (CTC Analytics). Chromatography was performed using a Waters X-Bridge C-18 (3.5 µm; 100 × 2.1 mm) column equipped with a Phenomenex KrudKatcher ULTRA HPLC In-Line Filter (Part AF0-8497). The column was held at a temperature of 40 °C, while the autosampler compartment was maintained at 4 °C. Mobile phases consisted of: (A) 95:5 H2O:MeOH with 2 mM Ammonium Acetate (NH4OAc) and (B) 85:10:5 MeOH:H2O:MeCN with 2 mM NH4OAc. A gradient elution profile was employed, following the trend of: (0 min 30% B), (0.50 min 30% B), (2.50 min 65% B), (2.51 min 100% B), (4.50 min 100% B), (4.51 min 30% B), (6.50 min 30% B). Flow was constant at 0.6 mL min^-1 with an injection volume of 10 µL. For MS parameters, the system was operated in positive ion mode with a TurboIonSpray probe monitoring transitions (±0.2 AMU) of m/z 393.2 → 373.2 for Dex and 397.3 → 377.2 for the Dex-d4 deuterated internal standard. Analyst Version 1.4.2 (Applied Biosystems-MDS Sciex) was used for instrument control, data acquisition, and peak integrations, while calculations including peak area ratios, standard curve regressions, sample concentration values, and descriptive statistics were performed with the assistance of the ALIS2004 validated LIMS.
Dex and internal standard (Dex-d4) were extracted from vitreous humor on ice using protein precipitation. Samples were initially centrifuged at approximately 1500 rcf for 5 min to remove any interfering particulates. Stepwise, the protocol for extraction from vitreous humor was to (1) pipette 50 µL of vitreous humor into an extraction tube; (2) add 13 µL H2O and vortex to mix; (3) add 25 µL internal standard spiking solution (100 ng/mL Dex-d4 in a 1:1 solvent of MeOH:H2O); (4) add 25 µL of make-up reagent (1:1 mixture of MeOH:H2O); (5) vortex mix for 5-10 s at a speed setting of 4 or 5; (6) centrifuge at ~60 rcf for 2 min; (7) add 300 µL of 9:1 MeOH:5 mM NH4OAc at pH 7 to precipitate proteins; (8) cap and vortex mix at full speed for 2 min; (9) Centrifuge at approximately 2700 rcf for 5 min; (10) transfer 300 µL of supernatant to a separate tube; (11) vortex the collected supernatant for 30 s at a low to moderate speed; (12) centrifuge at ~1500 rcf for 5 min; (13) store prepared extract at 4 °C until analysis by LC-MS/MS.
Pharmacokinetics. […] Animals were anesthetized with ketamine (up to ~50 mg/kg) and xylazine (up to ~10 mg/kg). Eyes were surgically prepared before intravitreal procedures with 5% betadine and topical anesthetic eye drops (proparacaine hydrochloride, 0.5%). Prior to test article administration, pupils were dilated with topical application of one drop each of 10% phenylephrine and 1% tropicamide on each cornea.
Implants (30 G × 6 mm Dex-TEG-Dex extruded rods, Ozurdex®) were injected (30 G needle for Dex-TEG-Dex, 22 G needle for Ozurdex®) intravitreally into the eyes of New Zealand White rabbits (female, 1.5–2.5 kg) with terminal timepoints of 1 and 2 weeks and 1, 2, 3, 6, 9, 12, and 14 months. Ocular tissues and plasma were collected at each timepoint and analyzed for Dex by LC/MS/MS. Whole globe eyes were collected into centrifuge tubes and remained frozen for a minimum of 24 h before dissection and tissue collection. During dissection, vitreous humor containing any remaining test article was collected frozen into pre-weighed centrifuge tubes and stored at −80 °C until further processing.

[2] = tested on: vascular endothelial growth factor (VEGF) induced blood-retinal barrier breakdown; assay: Rabbit pharmacodynamics, VEGF-induced vascular leakage; type: in vivo, Dutch Belted rabbits; design: key to FA Scoring: 0: major vessels straight, some tortuosity of smaller vessels, no vessel dilation; 1: increased tortuosity of major vessels and/or some vessel dilation; 2: leakage between major vessels, significant vessel dilation; 3: leakage between major and minor vessels, minor vessels still visible; 4: leakage between major and minor vessels, minor vessels poorly/not visible; details: single eyes, Fig 9b
Method: Pharmacodynamics. Rabbit pharmacodynamics studies were performed at Absorption Systems California (San Diego, CA, USA). All studies were conducted in compliance with relevant ethical regulations, including the USDA Animal Welfare Act (i.e., relevant sections of Section 9, Part 1, 2, and 3 of the Code of Federal Regulations) and in compliance with Absorption Systems’ Animal Welfare Assurance filed with the National Institutes of Health. Protocols were reviewed and approved by Absorption Systems’ Institutional Animal Care and Use Committee (IACUC) prior to the initiation of procedures. Treatment of animals was in accordance with conditions specified in the Guide for Care and Use of Laboratory Animals (NRC, 2011, National Academy Press). Animals were anesthetized with intramuscular ketamine hydrochloride (15-20 mg/kg) and xylazine (5 mg/kg) prior to test article injection or vascular leakage induction. The eye area was surgically prepped with 5% betadine and rinsing with balanced salt solution, followed by administration of 1–2 drops of topical proparacaine hydrochloride (0.5%). […] Test articles (27 G × 6 mm, 30 G × 6 mm, and 32 G × 6 mm Dex-TEG-Dex extruded rods, or Ozurdex®) were injected intravitreally in Dutch Belted rabbits (male, 1.84–2.49 kg, 5–6 months) on Day 0 and vascular leakage was induced by an intravitreal injection of VEGF (500 ng/eye) at acute and chronic timepoints (1 week, 2.5, 4.5, 6, 9, 12, and/or 18 months) post-implantation. Post-injection analgesia was provided by 0.02-0.05 mg/kg IM/SC buprenorphine. Negative control rabbits received a sham injection while positive control rabbits received a 2 mg solution dose of triamcinolone acetonide (Kenalog-40). Ophthalmic exams, including fundus microscopy and slit lamp microscopy, were carried out over the 3 days post-VEGF induction and vascular leakage was measured by fluorescein angiography on the third day post-VEGF induction. Eyes were graded based on fundus and fluorescein angiography images using a scoring system as follows[76]: 0 – major vessels straight, some tortuosity of smaller vessels, no vessel dilation; 1 – increased tortuosity of major vessels and/or some vessel dilation; 2 – leakage between major vessels, significant vessel dilation; 3 – leakage between major and minor vessels, minor vessels still visible; and 4 – leakage between major and minor vessels, minor vessels poorly/not visible.

[3] = cited from earlier work

CC1CC2C3CCC4=CC(=O)C=CC4(C)C3(F)C(O)CC2(C)C1(O)C(=O)COC(=O)OCCOCCOCCOC(=O)OCC(=O)C1(O)C(C)CC2C3CCC4=CC(=O)C=CC4(C)C3(F)C(O)CC21C (stereo not shown) [Dex-TEG-Dex 30G x 6 mm implant]
Dex in aqueous humor (ng/ml) [1]: BQL | Dex in retina (ng/g) [1]: BQL | Dex in vitreous humor (ng/ml) [1]: BQL

CC1CC2C3CCC4=CC(=O)C=CC4(C)C3(F)C(O)CC2(C)C1(O)C(=O)COC(=O)OCCOCCOCCOC(=O)OCC(=O)C1(O)C(C)CC2C3CCC4=CC(=O)C=CC4(C)C3(F)C(O)CC21C (stereo not shown) [Dex-TEG-Dex (30G x 6 mm implant)]
FA Scoring ([2]; 7 days): 0 | FA Scoring ([2]; 136 days): 0 | FA Scoring ([2]; 360 d): 2 and 3 and 4 and 0 and 1

OCCOCCOCCO [TEG, triethylene glycol]
toxicity by systemic routes of administration [3]: no significant adverse toxicity
